Tested on: C. elegans wild type strain N2
Test: C. elegans behavioral toxicity (thrashing/swimming) assay after 24 hours exposure to nicotine or tobacco extract with or without probiotic bacteria
Conditions: control worms with no bacteria, FIG. 1
Experimental: Experiments were carried out with the wild type strain N2 of C. elegans. Worms were synchronized by isolating eggs from gravid adults, collecting the eggs in M9 buffer, hatching the eggs overnight in NGM plates and sterilely isolating L1-stage worms with M9 buffer. The L1-stage worms were transferred to NGM (Nematode Growth Medium) plates inoculated with Escherichia coli strain OP50 and incubated for four days at 15° C. to reach adulthood.
Similarly, a natural tobacco extract (ABT #6079, Advanced Biotech) was diluted in M9 buffer to a final concentration of 6.2 mM.
Adult worms were washed in M9 buffer and 250 μl of worm suspension was transferred to 24-well culture plates with or without nicotine (250 μl if present) or tobacco extract (250 μl if present) and with or without probiotic suspension (500 μl if present). The probiotic suspension was added first to the wells followed by the nicotine or the tobacco extract. At least 40 worms were present per well. The plates were incubated at 20° C. for 24 hours. After incubation period, worm suspension in each well was washed three times in M9 buffer (centrifugation of four minutes at 1000 rpm). The worms were transferred in new 24-well culture plates containing 1 ml of agar 1% in each well. The worms were allowed to equilibrate for 45 minutes, and then the thrashing (swimming) was recorded using a Leica EC3 camera. […]

Compound: CN1CCCC1c1cccnc1.O.O.O=C(O)C(O)C(O)C(=O)O.O=C(O)C(O)C(O)C(=O)O (stereo not shown) [nicotine, Nicotine ditartrate dihydrate]
- behavioral toxicity of the challenge agent to worms without bacteria: induced a reversible paralysis

— patent US20210069269A1, “METHOD FOR ALLEVIATING TOBACCO OR NICOTINE WITHDRAWAL SYMPTOMS” (DANSTAR FERMENT AG, priority 2018, published 2021)
